Reference: patent publication US20230256050A1, “COMPOSITIONS, METHODS AND USES COMPRISING TENEURIN C-TERMINAL ASSOCIATED PEPTIDE -1 (TCAP-1) FOR ENHANCING MUSCLE PERFORMANCE” (priority 2016, published 2023)
Where no end group is shown, it is not given here.

Experiments:
[1] = system: C2C12 myotubes; assay: Mitochondrial membrane potential in C2C12 cells with Rhodamine-123; format: cell-based, mouse; details: caffeine 4 mM; TCAP-1 100 nM pre-treatment for 1 hour, compared with caffeine alone
Description: C2C12 myotubes were cultured as previously described above. Changes in mitochondrial membrane potential were assessed using fluorescent indicator Rhodamine123 (R123). Cells were loaded with R123 by incubating a single coverslip in DMEM containing 5 µM R123 (from a 1 mM stock solution in DMSO) for 30 min (37° C.) followed by a 15 min wash in Locke’s Buffer containing (in mM): 154 mM NaCl, 4 mM NaHCOs, 5 mM KCI, 2.3 mM CaCl2, 1 mM MgCl2, 5 mM glucose and 10 mM Hepes (pH 7.4); osmolarity 305-310 mOsmol at 22° C. […] Changes in R123 fluorescence was imaged using a green fluorescent protein (GFP) filter set (Semrock, Rochester, NY, USA) and a X-Cite 120 fluorescence illumination system (Excelitas Technologies, Mississauga, ON, Canada), controlled by Volocity 4.0 imaging software (Quorum Technologies Inc., Guelph, ON, Canada). Fluorescence emissions were detected with an Orca-ER Hamamatsu B/W CCD digital camera (Hamamatsu, Middlesex, NJ, USA). R123 was excited with a wavelength of 480 nm for 100 ms every 5 sec and fluorescence emission was measured at wavelength of 516 nm. […] Using velocity 4.0 imaging software, multiple regions of interests (ROIs) were taken from each coverslip to be analysed.

[2] = system: C2C12 myotubes; assay: Calcium imaging in live C2C12 cells (fluo-4); format: cell-based, mouse; details: caffeine 4 mM, TCAP-1 100 nM pre-treatment for 1 hour; for peak in cytosolic calcium on caffeine application (fluo-4 fluorescence): compared with caffeine alone; for decline of cytosolic calcium after the caffeine peak: over 5 minutes
Description: For live-cell fluorescence experiments, immortalized murine C2C12 skeletal muscle cells were grown and fully differentiated on Poly-D-lysine coated 25 mm round No. 1 glass coverslips (Warner Instruments, Hamden, CT, USA). Cells were grown in Dulbecco’s Modified Eagle Medium (DMEM) supplemented with 20% fetal bovine serum (FBS), 100 U/ml penicillin and 100 µg/ml streptomycin (Invitrogen, Burlington, ON, Canada), and stimulated differentiation with DMEM supplemented with 10% horse serum (HS), 100 U/ml penicillin and 100 µg/ml streptomycin (Invitrogen, Burlington, ON, Canada. Changes in intracellular calcium were assessed using the membrane-permeable calcium sensitive fluorescent indicator fluo-4, AM (Invitrogen, Burlington, ON, Canada). Cells were loaded with fluo-4 by incubating a single coverslip in DMEM containing 10 µM fluo-4 (from a 1 mM stock solution in DMSO) for 30 min (37° C.) followed by a 15 min wash in Locke’s Buffer containing (in mM): 154 mM NaCl, 4 mM NaHCOs, 5 mM KCI, 2.3 mM CaCl2, 1 mM MgCl2, 5 mM glucose and 10 mM Hepes (pH 7.4); osmolarity 305-310 mOsmol at 22° C. During loading, the acetate groups on fluo-4 are removed by intracellular esterases reducing dye leakage. In experiments assessing changes in intracellular calcium, coverslips were placed in a flow-through bath chamber (RC-40HP, Warner Instruments, Hamden, CT, USA) of an inverted microscope (Axio Observer Z1, Zeiss, Toronto, ON, Canada) equipped with a 40× oil immersion objective. Cells were continuously bulk perfused with Locke’s buffer via a gravity drip perfusion system at a rate of 2-3 ml min-1 and experiments were conducted at a room temperature (RT) of 22° C. Changes in fluo-4 fluorescence was imaged using a green fluorescent protein (GFP) filter set (Semrock, Rochester, NY, USA) and a X-Cite 120 fluorescence illumination system (Excelitas Technologies, Mississauga, ON, Canada), controlled by Volocity 4.0 imaging software (Quorum Technologies Inc., Guelph, ON, Canada). Fluorescence emissions were detected with an Orca-ER Hamamatsu B/W CCD digital camera (Hamamatsu, Middlesex, NJ, USA). Fluo-4 was excited with a wavelength of 480 nm for 100 ms every 5 sec and fluorescence emission was measured at wavelength of 516 nm. Caffeine (4 mM; Sigma Aldrich, Oakville, ON) was applied to C2C12 myotubes to stimulate calcium release from the sarcoplasmic reticulum. Cells were either pre-treated with TCAP-1 (100 nM) for 1 hour before stimulation with caffeine. Using velocity 4.0 imaging software, multiple regions of interests (ROIs) were taken from each coverslip to be analysed.

[3] = system: tibialis anterior muscle; assay: Oxidative capacity, NADH staining of muscle cryosections; format: in vivo, Sprague-Dawley rats; details: 10 nmoles/kg for 5 days
Description: Tibialis anterior muscles from the treated Sprague-Dawley rats were flash-frozen in liquid-nitrogen-cooled isopentane until cryosectioned at 10 µm thickness. Cryosections were then washed 2X with PBS, and then 0.2% NBT solution in PBS containing 0.1% NADH was added and allowed to incubate for 30 min at 37° C. Slides were washed 2X in PBS before mounted with cryoseal and imaged with Canon camera and Leica bright-field microscope at 100x magnification. Images were analyzed on Image J software and frequency distribution curves were constructed, where the darker the pixel represents higher NADH levels. Frequency curves were built based on average of five pictures per tissue, with a minimum of three tissues analysed for each group.

[4] = system: tibialis anterior muscle; assay: Electrical muscle stimulation, 6-minute fatigue protocol; format: in vivo, Sprague-Dawley rats
Description: Male adult Sprague-Dawley rats (-350 g) were used for the muscle function studies. Male adult Wistar rats (-250 g) were used for the functional positron emission tomography tests. Electrical muscle stimulation protocol was followed as described by Holwerda and Locke (2014) with minor modifications. Briefly, sixteen male adult Sprague-Dawley rats ([…]) were allowed to acclimate for 1 week on a 12:12 LD cycle. For 5 days daily, half of the rats (n=8) were treated with physiological saline control, and the other half (n=8) was treated with mouse-TCAP-1 (10 nmoles/kg) by subcutaneous injection in the interscapular region. Three days from the last treatment, animals were anesthetized with 5% isofluorane in 1 L/min O2, and subsequently positioned into testing apparatus. A 25 g needle was inserted through the soft tissue of the knee in order to ensure a stable position. The foot was placed on the lever attached to a servomotor and taped in position. Electrodes were placed below the skin but adjacent to the tibialis anterior (TA) muscle. The correct voltages for peak tetanic tension was established by increasing voltage by 1 volt increments. The test began with a single tetanus and single twitch protocol to establish baseline. The 6-min fatigue protocol (8 V, 200 Hz, 300 ms) was started. Immediately following the termination of the protocol, tetanic and twitch tensions were recorded at 0, 1, and 5 mins. Animals were immediately sacrificed after recovery measurements were recorded.

[5] = system: diacylglycerol (DAG) levels, downstream signaling of ADGRL1, C2C12 skeletal cell line; assay: Mouse diacylglycerol (DAG) ELISA in C2C12 cell lysates; format: cell-based; details: TCAP-1 100 nM, after 60 minutes, p<0.0001
Description: (§1) Immortalized murine skeletal cell line C2C12 cells were used for all in vitro studies. Cells were maintained at 60-70% confluency with Dulbecco’s Modified Eagle Medium (DMEM) supplemented with 20% fetal bovine serum (FBS) and penicillin/streptomycin antibiotic combination. To induce differentiation, the media was changed to DMEM supplemented with 10% horse serum and penicillin/streptomycin antibiotic combination, and cells were allowed to differentiate for 6 days (media replaced every 24 h). For treatment, cells were serum starved for 3 h and then treated with either vehicle (ddH20) or TCAP-1 (100 nM).
(§2) The protocols provided by commercial DAG and IP3 assays (MyBiosource, San Diego, California USA). Briefly, immortalized mouse C2C12 cells were prepared using the TCAP-treatment protocol described previously. Cells were added to a microELISA plate coated with purified mouse DAG or IP3 antibodies, respectively. Subsequently, 3,3′,5,5′-tetramethylbenzidine (TMB) solution was added to detect the HRP-conjugates as the colour changes. Finally, a sulphuric acid solution was added to terminate the reaction. The absorbance change was measured at a wavelength of 450 nm using a spectrophotometer (SpectraMax Plus).

[6] = system: C2C12 murine skeletal muscle cells; assay: Radioactive glucose (3H-2-deoxyglucose) uptake in vitro; format: cell-based, mouse; details: 100 nM, at 30 and 45 minutes (p<0.0001, p<0.001)
Description: as §1
Immortalized murine skeletal C2C12 cells were allowed to proliferate and differentiate and glucose uptake protocol was followed as previously described with minor modifications (Maher et al., 1991; Uemura & Greenlee, 2006). At day 6 post-plating, cells were washed 2x with Locke’s buffer (154 mM NaCl, 5.6 mM KCI, 2.3 mM CaCl2, 3.6 mM NaHCOs, 5 mM HEPES) without serum and glucose. The culture was incubated in the Locke’s buffer for 1 h at 37° C. followed by exposure to 100 nM insulin, 100 nM TCAP-1, 100 nM SC-TCAP-1, or saline. 3H-2-deoxyglucose (0.5 µCi/ml) was added to culture 5 min before termination of treatment exposure. […] Cell lysates were used for determination of radioactivity by a beta liquid scintillation counter (Beckman Coulter).

[7] = system: hind limb muscle; assay: Functional positron emission tomography (fPET) of 18F-deoxyglucose uptake; format: in vivo, Wistar rats; details: single subcutaneous 10 nmoles/kg, 3 days later, p<0.1, n=5
Description: Male adult Sprague-Dawley rats (-350 g) were used for the muscle function studies. Male adult Wistar rats (-250 g) were used for the functional positron emission tomography tests. Functional Positron emission tomography (fPET) was performed using a Siemens Inveon microPET small animal PET scanner, and [18F]-2-deoxyglucose (FDG) radiotracer (IBA Molecular) and protocol was followed as previously described (Hogg et al., manuscript in review). PET scans were acquired on all of the animals 3 days post-dosing. The animals were injected intravenously with approximately 1mCi of FDG. The FDG uptake occurred under anesthesia for 90 min. Body temperature was maintained with a thermostat-regulated recirculating water heated pad. Static emission data was acquired for 20 minutes. […] The total PET counts were calculated from all voxels within the segmented volumes of interest. (Percent injected dose (%ID)) was calculated by normalizing the total counts in each tissue of interest at each time point, to the whole body total counts calculated over 1 min from the whole body max uptake time point, for each animal, during the first 90 min post FDG administration.) These images were then compiled into 3D projections, thus allowing for accurate analyses of muscle tissue. Fluorescence of the mean pixel was calibrated to volume of muscle being analyzed (mean pixel fluorescence/mm3).

[8] = system: inositol triphosphate (IP3) levels, downstream signaling of ADGRL1, C2C12 skeletal cell line; assay: Mouse inositol triphosphate (IP3) ELISA in C2C12 cell lysates; format: cell-based; details: TCAP-1 100 nM, after 15 minutes, p<0.0001
Description: as §1, §2

[9] = system: neurons; details: via increases of glucose transporter GLUT-3 to the plasma membrane (unpublished); cited from earlier work
[10] = 10 nmoles/kg s.c. for 5 days, baseline

Row | Compound | mitochondrial membrane potential (Rhodamine123 fluorescence) [1] | peak in cytosolic calcium on caffeine application (fluo-4 fluorescence) [2] | decline of cytosolic calcium after the caffeine peak [2] | NADH staining (oxidative capacity), unstimulated control limb, vs vehicle ([3]; contralateral control limb, p<0.05) | TCAP-1-mediated increase in oxidative capacity (NADH), stimulated limb, vs vehicle ([3]; exercised (stimulated) limb, p=0.1) | fatigue response curve vs vehicle ([4]; 10 nmoles/kg s.c. for 5 days) | tetanic force production throughout fatigue or recovery vs vehicle ([4]; 10 nmoles/kg s.c. for 5 days) | force generated in recovery after fatigue protocol ([4]; 10 nmoles/kg s.c. for 5 days, after 6-minute fatigue protocol) | contraction relaxation rate at baseline vs vehicle [4, 10] | contraction velocity at baseline vs vehicle [4, 10] | half relaxation time (1/2RT) over fatigue protocol ([4]; 10 nmoles/kg s.c. for 5 days, compared to vehicle, p<0.05) | muscle mass vs vehicle ([4]; 10 nmoles/kg s.c. for 5 days, extracted muscles) | twitch peak force at pre-test (baseline) vs vehicle ([4]; 10 nmoles/kg s.c. for 5 days, tested 3 days after last injection, p<0.05) | rate of the contractions (max dx/dt) over fatigue protocol ([4]; 10 nmoles/kg s.c. for 5 days, vehicle group steadily declined, p<0.05) | fiber size vs vehicle ([4]; data not shown) | DAG levels compared to vehicle treatment [5] | 3H-DG uptake into C2C12 cells vs vehicle [6] | 18F-DG uptake in hind limb muscles (fPET fluorescence) [7] | IP3 levels [8] | glucose uptake in neurons [9]
1 | Cn1c(=O)c2c(ncn2C)n(C)c1=O [caffeine, Caffeine, reference compound] | mitochondrial membrane depolarization | strong peak in cytosolic calcium | gradual decrease over 5 minutes | – | – | – | – | – | – | – | – | – | – | – | – | – | – | – | – | –
2 | TCAP-1: 41-mer peptide from the C-terminal of teneurin-1, synthesized amidated, suspended in 0.9% saline for subcutaneous injection (QQLLGTGRVQGYDGYFVLSVEQYLELSDSANNIHFMRQSEI-NH2) | significantly higher membrane depolarization | significantly lower peak | significantly faster decline | significant increased frequency of a stronger NADH-positive staining | maintained | responded comparably | responded comparably | increased | increased | significantly slower | sustained | no difference | significantly higher | maintained throughout the protocol | no difference | significantly decreased | significantly increased | significant increase | significantly reduced | significantly increases glucose uptake
